# Source: PMC12313019, “Fibrotic lung ECM upregulates SDC4/integrin-αvβ1 interaction and the interfering peptide SDC4_87-131 and its derivative peptides alleviate pulmonary fibrosis” (Regenerative Biomaterials, 2025)
# Legend:
# [1] = system: SDC4/integrin-αv; test: Duolink-PLA, SDC4/integrin-αv interaction in BLM lung tissue; format: in vivo, mouse; settings: SDC4_87-131 1 mg/kg ITD q3d; C8 10 mg/kg IP qd; Anti-SDC4(93-121) 8 mg/kg ITD day 3 and 10; n=5
# Description: (§1) After the mice were anesthetized (1% sodium pentobarbital 50 mg/kg was injected intraperitoneally), 150 μL of bleomycin (BLM, 5 mg/mL, BIO-000001) was inhaled into the lungs of the mice by tracheal inhalation instillation. One day later, the mice were randomly divided into model and drug treatment groups, and the mice in the control group were only subjected to saline inhalation.
# Cells or tissue slices were attached to slides, fixed and permeabilized and blocked with Duolink^TM (Merck, MO, USA) blocking buffer. Antibodies against the extracellular domain of SDC4 (5G9, mouse IgG, SCBT #sc-12766), integrin-αv (rabbit IgG, CST #4711) and integrin-β1 (rabbit IgG, CST #34971) were diluted and added to the samples and incubated overnight at 4°C. After washing, PLUS and MINUS (proximity ligation assay, PLA) probes were added to the samples and incubated at 37°C for 1 h. After washing, the samples were sequentially incubated with PLUS and MINUS (PLA) probes, ligation buffer and amplification buffer containing polymerase. Finally, the samples were mounted with in situ mounting medium containing DAPI. Images were acquired using a Leica SP5 confocal microscope (Leica Biosystems, Germany) and quantitative analysis was performed using ImageJ software.
# [2] = molecular target: integrin-αvβ1 (Homo sapiens, UniProt P05556+P06756); test: SPR binding of peptides to integrin-αvβ1 (Biacore 8K+); settings: 25°C, Figure 7E
# Sequence of integrin-αvβ1 (P06756 31-992 limits assumed): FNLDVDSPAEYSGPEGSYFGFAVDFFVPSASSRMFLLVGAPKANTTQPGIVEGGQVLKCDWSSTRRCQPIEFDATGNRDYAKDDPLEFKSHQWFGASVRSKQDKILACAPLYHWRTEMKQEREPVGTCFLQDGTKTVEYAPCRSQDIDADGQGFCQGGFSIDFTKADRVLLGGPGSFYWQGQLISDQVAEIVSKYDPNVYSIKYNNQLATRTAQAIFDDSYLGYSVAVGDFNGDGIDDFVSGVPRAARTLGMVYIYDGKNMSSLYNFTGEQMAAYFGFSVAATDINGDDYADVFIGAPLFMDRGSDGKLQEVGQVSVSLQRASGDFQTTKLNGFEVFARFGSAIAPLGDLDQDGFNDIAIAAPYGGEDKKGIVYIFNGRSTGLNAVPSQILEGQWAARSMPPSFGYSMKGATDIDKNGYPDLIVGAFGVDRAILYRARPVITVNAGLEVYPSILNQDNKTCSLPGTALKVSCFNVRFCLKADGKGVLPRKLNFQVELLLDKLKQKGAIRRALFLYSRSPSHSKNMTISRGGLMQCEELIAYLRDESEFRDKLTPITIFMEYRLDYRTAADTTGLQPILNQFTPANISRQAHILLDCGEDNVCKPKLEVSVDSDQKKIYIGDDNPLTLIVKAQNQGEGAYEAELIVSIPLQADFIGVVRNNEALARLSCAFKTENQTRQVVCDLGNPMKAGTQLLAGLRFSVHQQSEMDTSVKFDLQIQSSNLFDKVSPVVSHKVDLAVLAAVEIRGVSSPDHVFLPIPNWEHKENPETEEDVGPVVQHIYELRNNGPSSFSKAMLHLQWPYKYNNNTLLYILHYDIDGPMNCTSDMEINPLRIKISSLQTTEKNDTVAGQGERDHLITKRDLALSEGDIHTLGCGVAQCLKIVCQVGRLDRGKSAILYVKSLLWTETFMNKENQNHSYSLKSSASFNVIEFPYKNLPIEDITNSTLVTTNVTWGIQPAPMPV
# Sequence of integrin-αvβ1 (P05556 21-728 partner limits assumed): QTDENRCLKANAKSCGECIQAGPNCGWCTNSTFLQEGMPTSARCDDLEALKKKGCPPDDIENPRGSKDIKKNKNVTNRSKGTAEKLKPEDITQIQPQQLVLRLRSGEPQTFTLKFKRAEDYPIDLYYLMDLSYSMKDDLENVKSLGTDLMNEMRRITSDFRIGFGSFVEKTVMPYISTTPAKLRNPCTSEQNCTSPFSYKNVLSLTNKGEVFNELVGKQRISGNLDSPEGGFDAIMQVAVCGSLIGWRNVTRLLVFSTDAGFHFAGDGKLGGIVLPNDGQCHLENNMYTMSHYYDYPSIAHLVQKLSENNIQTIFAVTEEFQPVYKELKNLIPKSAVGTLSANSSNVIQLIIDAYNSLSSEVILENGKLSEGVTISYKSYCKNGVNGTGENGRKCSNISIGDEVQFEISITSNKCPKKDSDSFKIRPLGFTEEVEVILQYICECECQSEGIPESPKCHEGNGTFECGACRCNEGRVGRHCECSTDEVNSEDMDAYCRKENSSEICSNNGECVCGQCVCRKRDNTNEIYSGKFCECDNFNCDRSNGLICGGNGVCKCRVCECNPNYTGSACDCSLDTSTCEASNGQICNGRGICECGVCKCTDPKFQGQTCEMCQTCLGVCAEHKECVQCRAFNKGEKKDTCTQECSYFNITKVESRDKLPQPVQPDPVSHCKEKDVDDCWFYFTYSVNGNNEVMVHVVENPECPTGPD
# Description: The Biacore 8K+ system (GE Healthcare) was used at 25°C. The ligand integrin-αvβ1 (1 mg/mL) was routinely coupled to the sensor chip (Series S Sensor Chip CM5, Cytiva, #100530). The peptide samples SDC4_87-131 and CS-1, -2, -3, -4, -8, -9, -10 were dissolved in PBS, and then, the samples with different concentration gradients (0.78, 1.56, 3.125, 6.25, 12.5, 25, 50, 100 μM) were injected, respectively, under the driving of buffer PBST (PBS + 0.05% Tween-20). The signal intensity was quantified in relative units (RU), and binding affinity was determined using the dissociation constant (Kd). After the experiment, 10 mM glycine-HCl buffer solution (pH = 2) was selected to regenerate the chip surface.
# [3] = system: BLM-induced PF, C57BL/6J mice; test: BLM-induced PF in mice: RT-PCR of lung tissue; format: in vivo, mouse; settings: BLM lung tissue
# Description: as §1
# (§2) Based on the dosage of SDC2 fragment peptide and our experimental results (Supplementary Figure S10A and B), the dosage schedule of SDC4_87-131 was set as follows: starting on the third day after BLM inhalation, 1 mg/kg, administered via trachea infusion once every three days. And Anti-SDC4(93-121) 8 mg/kg was administered on the third and tenth days (reference dosage).
# (§3) Total RNA was extracted from cells or lung tissue (10 mg) using Trizol reagent, and mRNA was reverse transcribed into cDNA using HiScript® II QRT SuperMix for qPCR (Vazyme, #R223-01). Real-time fluorescence quantitative PCR (RT-PCR) was performed using Hieff® qPCR SYB Green Master Mix (YEASEN, #11201ES08) to obtain the Ct value. The 2^−ΔΔCt method was used to obtain the relative expression level of mRNA in each group. Primers (Table 1) were purchased from Sangon Biotech.
# [4] = system: NIH3T3 cells; test: RT-PCR of fibroblast activation markers, TGF-β1 and inflammatory factors in dECM-stimulated fibroblast; format: cell-based, mouse
# Description: (§4) Decellularized lung ECM (dECM) was prepared as described in previous study. 2 × 10^5 cells/mL NIH3T3 cells (mouse […], purchased from the Stem Cell Bank of the Chinese Academy of Sciences, Shanghai, China) were seeded on the dECM slices attached to the bottom of the culture dish and cultured in DMEM medium containing 0.5% fetal bovine serum (Gibco, Waltham, MA, USA) at 37°C and 5% CO2.
# as §3
# [5] = system: BLM-induced PF, C57BL/6J mice; test: BLM-induced PF in mice: lung index and blood cell count; format: in vivo, mouse; settings: n=6
# Description: as §1, §2
# At the termination of the experiment, the mice were euthanized and their lung tissues were taken after the eyeballs were removed and blood was collected. Within 2 hours after blood collection, the blood samples were tested on the URIT-2900VetPLUS automatic animal blood cell analyzer.
# [6] = system: fibroblast; test: CCK-8 fibroblast viability/toxicity; format: cell-based, mouse; settings: CCK-8, 48 h, 10–1000 nM
# Description: as §4
# (A) Schematic diagram of SDC487-131; (B) Effect of SDC487-131 and GRGDNP on fibroblast proliferation at 48 h was determined by CCK-8 method (n=3); (C) Effect of different concentration of SDC487-131 on fibroblast activation induced by d-PF for 48 h (n=5). Note: **p < 0.01 vs. PBS in d-Nor group; #p < 0.05 vs. PBS in d-PF group. d-Nor: dECM-Nor; d-PF: dECM-PF.
# Figure S14. The viability of fibroblast after treated with peptides for 48 h was detected by CCK-8 assay.
# [7] = system: integrin-β1; test: BLM-induced PF in mice: flow cytometry of integrin-β1 activation in lung tissue; format: in vivo, mouse
# Description: as §1
# The single cell suspension of mouse lung tissue was obtained by grinding. After the remaining red blood cells were lysed with ACK Lysis Buffer (TBD, NH4CL2009), 1×10^6 cells/100 μL of cells were added with Fixable Viability Stain 780 (BD, #565388). After incubation at room temperature in the dark for 10-15 min, the suspension was washed twice with PBS containing 1%-2% FBS. The FCR antibody TruStain FcX™ PLUS (BD, #156603) was added to the cell suspension at a ratio of 0.25 μL:100 μL and blocked on ice for 10 min. Then, the antibody was incubated at an appropriate concentration and time according to the manufacturer's instructions. Antibodies include CD45 (Biolegend, #157619), CD140a (Thermo Fisher, #25-1401-82), SDC-4 (Sino Biological, #50726-R112-P), SP-C (Bioss, #bs-10067R-FITC) and Integrin-β1 (9Eg7, BD, 553715), and AF647 anti-Rat (CST, #4418S) was used as the secondary antibody. After incubation, cells were washed and resuspended, and detected using LSRFortessaX-20 (BD).
substance,measurement,setting,value
Ac-NHIPERAGSGSQVPTEPKKLEENEVIPKRISPVEESEDVSNKVSM-NH2 [SDC4_87-131],interaction of integrin-αv and SDC4 in BLM lung tissue,[1],could reduce the interaction of integrin-αv and SDC4
same,affinity (in words),[2],nM level
same,"mRNA levels of α-SMA, FN, Col I, TGF-β1, IL-1β, IL-6 and TNF-α","[3]; 1 mg/kg ITD q3d, n=4–6",significantly reduced
same,IL-6 downregulation vs C8,[3]; n=4–5,stronger effect in downregulating IL-6 than C8
same,dECM-PF-induced fibroblast activation,"[4]; 100 nM, 48 h",significantly inhibit dECM-PF-induced fibroblast activation
same,dECM-PF-induced fibroblast activation and TGF-β1 synthesis,[4]; SDC4_87-131 100 nM vs Anti-SDC4(93-121) 100 ng/mL,inhibited dECM-PF-induced fibroblast activation and TGF-β1 synthesis
same,downregulating effect (blood leukocyte count) vs C8,[5]; Figure 5F,notably stronger than that of C8
same,lung index and blood leukocyte count,"[5]; SDC4_87-131, C8, Anti-SDC4(93-121) groups",could reduce the lung index and blood leukocyte count
same,toxicity to fibroblast,[6],no significant toxicity to fibroblast
same,integrin-β1 activation in nonimmune cells (CD45^-),[7],abolished
same,integrin-β1 activation effect vs C8 and Anti-SDC4(93-121),[7]; CD45^- cells,equivalent to the effects of C8 and Anti-SDC4(93-121)
